Experimental data published in PMC9756341 (Journal of the American Chemical Society, 2022).
Several values for one entry are separate records, joined by “and”; a condition that tells them apart may be missing. Identical values can stand only once. Blank lines part the entries; values can stand above or below the substance they belong to. The star is where a group is joined. ACC = NC(=O)Cc1cc(=O)oc2cc(N*)ccc12; AMC = Cc1cc(=O)oc2cc(N*)ccc12; Boc = CC(C)(C)OC(=O)*

Assays:
[1] = system: recombinant tPA, uPA, or KLK6; settings: 2 h incubation, then fABP 21 for 1 h, in-gel fluorescence
[2] = target: T1, urokinase plasminogen activator (uPA) (Homo sapiens, UniProt P00749); assay: Enzyme kinetics to calculate kobs/I, uPA; format: biochemical
T1 construct: purchased BioTechne 1310-SE
Description: (§1) Reagents were obtained from VWR, Sigma Aldrich, Sartorius, Fluorochem, AGTC, Novabiochem, TCI, Alfa Aesar, Iris Biotech, Thermofisher and Bachem. […]
(§2) (Code 7449-SE) and KLK8 (Code 2025-SE) were obtained from BioTechne. KLK6 was obtained from the group of Aubry Miller (DKFZ) and KLK7 was obtained from the group of Judith Clements (QUT).
(§3) The manufacturer’s recommended buffers were used with uPA and tPA but not KLK8. The KLK6 assay buffer was as follows: 50 mM Tris 150 mM NaCl, 1 mM EDTA, 0.05% Tween20, pH 7.5. The KLK7/8 buffer was as follows: 100 mM Na2PO4, 0.01% Tween20, pH 8.5. Fluorescence measurements were measured using an Envision plate reader. Fluorescence data was processed using Graphpad Prism 8. […]
(§4) 2-chlorotrityl chloride resin. […]

[3] = target: T2, KLK8 (Homo sapiens, UniProt O60259); assay: Enzyme kinetics to calculate kobs/I, KLK8; format: biochemical; settings: for KLK8 kobs/I: KLK8 1 nM, Boc-VPR-AMC 30 µM, 100 mM Na2PO4 0.01% Tween20 pH 8.5, room temperature, 30 min, pseudo first order kinetics, triplicates
T2 construct: Active recombinant FGFBP1 (Code 1593-FB), HSPG2 (Code 2364-ER), uPA (Code 1310-SE), tPA (Code 7449-SE) and KLK8 (Code 2025-SE) were obtained from BioTechne; purchased BioTechne 2025-SE
T2 sequence (O60259 33-260): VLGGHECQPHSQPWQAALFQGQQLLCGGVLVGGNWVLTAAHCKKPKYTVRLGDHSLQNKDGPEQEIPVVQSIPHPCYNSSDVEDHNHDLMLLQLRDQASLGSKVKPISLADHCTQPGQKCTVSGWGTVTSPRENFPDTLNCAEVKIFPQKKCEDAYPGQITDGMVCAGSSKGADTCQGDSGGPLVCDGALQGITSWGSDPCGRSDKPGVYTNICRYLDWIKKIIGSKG

[4] = target: T3, tissue plasminogen activator (tPA) (Homo sapiens, UniProt P00750); assay: Enzyme kinetics to calculate kobs/I, tPA; format: biochemical
T3 construct: purchased BioTechne 7449-SE
T3 sequence (P00750 36-562): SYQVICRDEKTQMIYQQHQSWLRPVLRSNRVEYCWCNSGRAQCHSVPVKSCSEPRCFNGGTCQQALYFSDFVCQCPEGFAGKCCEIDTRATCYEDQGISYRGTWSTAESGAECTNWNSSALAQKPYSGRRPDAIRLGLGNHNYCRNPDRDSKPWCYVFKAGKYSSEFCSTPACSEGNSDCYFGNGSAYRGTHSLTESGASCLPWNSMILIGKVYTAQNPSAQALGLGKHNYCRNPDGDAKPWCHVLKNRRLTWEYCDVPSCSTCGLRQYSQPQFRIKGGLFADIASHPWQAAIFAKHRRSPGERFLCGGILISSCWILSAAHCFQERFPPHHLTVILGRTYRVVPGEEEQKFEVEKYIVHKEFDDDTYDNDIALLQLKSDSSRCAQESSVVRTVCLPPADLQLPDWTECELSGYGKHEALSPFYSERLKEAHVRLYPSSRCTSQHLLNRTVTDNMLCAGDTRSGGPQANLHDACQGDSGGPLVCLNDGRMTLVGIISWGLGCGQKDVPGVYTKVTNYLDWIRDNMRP
Description: as §1, §2, §3, §4

[5] = system: Capan-2 cells; settings: 0.13 to 2 μM, Incucyte live cell imaging every 4 h for 5 days, serum-free DMEM
Description: Incucyte assays for proliferation and toxicity
Proliferation was quantified using the Incucyte software by measuring percentage confluency. Sytox
green was used as a marker for cell death. Cell death was quantified by measuring total green
fluorescence of each well.
Incucyte (proliferation and toxicity) assays. Capan-2 cells were seeded in a sterile 96 well plate
(10,000 cells per well). The outermost wells were left empty to mitigate edge effects. Cells were grown
in growth media (10% FBS) overnight to adhere. The next day, the media was replaced with serum-free
DMEM (117 µL) containing Sytox green (250 nM) or a DMSO control.

[6] = system: intracellular proteases of Capan-2 cells; settings: live Capan-2 cells or cell lysate, 2 h, NeutrAvidin-HRP blot
Description: S12. Probe treatment in live Capan-2 cells and cell lysate
Figure S12. Capan-2 cells were grown to 80% confluency, followed by the addition of bABP 17 or FP-biotin for 2 h. Cells were lysed, boiled with Laemmli buffer and analysed using a NeutrAivdin-HRP western blot (in cell blot). Standard Capan-2 lysate was also treated with the same amounts of bABP 17 and FP-biotin, followed by the same analysis (in lysate blot).
(1 picture or pasted object on this page, not shown here)

[7] = system: Capan-2 conditioned media proteome; settings: 2 μM, 1 h, NeutrAvidin enrichment, LC–MS/MS, triplicate
Description: Pulldown experiments (LC-MS/MS) Conditioned media was diluted with PBS to exactly 1 mg/mL.
300 µg of total protein was used per replicate. Each condition was performed in triplicate. The inhibitor
or DMSO control (1:100 dilution) was incubated with the media at RT for 2 h with a gentle agitation.
for 1 h. The proteins were precipitated using the MeOH/H2O/CHCl3 method. The pellet was washed
twice with MeOH and dried in air for 5 min. The proteins were resuspended in 2% SDS, 50 mM HEPES
in H2O (pH 8) to a concentration of 10 mg/mL. 50 mM HEPES was added to gradually dilute the protein
back to 1 mg/mL and the samples were centrifuged (17,000 g, 5 min). A 1:1 mixture of NeutrAvidin
agarose resin (15 µL per 300 µg protein) and control agarose resin (15 µL per 300 µg protein) was
prepared and washed with 0.2% SDS, 50 mM HEPES. The test samples were added into the resin and
the mixture was shaken at RT for 2 h. The supernatant was removed, and the beads were washed with
3 × 0.2% SDS, 50 mM HEPES and 3 × 50 mM HEPES. The beads were resuspended in 50 mM HEPES
(50 µL). TCEP was added to a final concentration of 5 mM (1:20 dilution). Chloroacetamide was added
to a final concentration of 10 mM (1:20 dilution). The mixture was shaken at RT for 30 min. To digest
the peptides off the resin, 0.5 µL of trypsin (0.2 mg/mL stock) was added into each sample and the
samples were shaken at 37 °C overnight. […]

[8] = system: Capan-2 cells; settings: Capan-2 cells (active KLK6), 2 μM, 24 h, relative to DMSO
Description: (§5) Next, the effect of KLK6 inhibition on migration and invasion of Capan-2 cells was assessed using a Boyden chamber assay.
(§6) (13 µL per condition). Control conditions included puromycin (100 µg/mL), DMSO only, Sytox green only or DMSO + Sytox green. The final inhibitor concentrations ranged from 2 µM to 125 nM. The cells were placed into an Incucyte with the incubator set at 37 °C and 5% CO2. Phase and green fluorescence were analysed every 4 h for 5 days.
(§7) Invasion/migration assays. Cell invasion was measured using Corning Fluoroblok inserts following a modified procedure11. Fluoroblok inserts were placed into the wells of a 24-well plate. Matrigel was suspended to 300 µg/mL in coating buffer (0.01M Tris, 0.7% NaCl, pH 8). The matrigel suspension (100 µL) was added into the Fluoroblok insert and the plate was left at 37 °C for 2 h. A migration control (with no matrigel) was also included. Cells were trypsinised and resuspended in serum-free DMEM.
(§8) The leftover buffer in the chambers was decanted and 500 µL of cells (100,000 per well) were seeded into the apical chamber of the insert. DMEM with 10% FBS (750 µL) was added into the basal chamber as a chemoattractant. The plate was incubated at 37 °C and 5% CO2 for 24 h. The chambers were removed and placed into a new 24-well plate containing 50 µM of CellTracker CMHC dye in HBSS. The cells were stained for 0.5 h and the chamber was removed and placed into the previous plate containing DMEM with 10% FBS. The cells were imaged for blue fluorescence (ex/em = 375/460) using a Celena S inverted fluorescence microscope. Percentage invasion was calculated by quantifying the cell area

[9] = system: BxPC-3 cells; settings: BxPC-3 cells (no active KLK6), 2 μM, 24 h, relative to DMSO
Description: as §5, §6, §7, §8

[10] = system: endogenous active KLK6; settings: Capan-2 conditioned media, streptavidin pulldown, KLK6 western blot
Description: Conditioned media was incubated with bABP 17 (10 μM) or DMSO for 2 h, and labeled proteins enriched on magnetic streptavidin-loaded beads, eluted, and analyzed by western blot against a KLK6 antibody.
Cell culture. Cells were cultured in their recommended culture media supplemented with 10% (v/v)
foetal bovine serum at 37 °C and 5% CO2.
Preparation of conditioned media. Cells were grown in standard growth media to 80% confluency in
a T175 flask. The medium was removed, and the cells were washed with serum-free, phenol-red free
RPMI. The cells were incubated with the same RPMI for 2 h. The medium was replaced once again
with serum-free, phenol-red free RPMI and the cells were incubated for 48 h. The condition medium
was collected and filtered through a 0.2 µm syringe filter. The medium was concentrated (25 mL to
0.75 mL) using a 3 kDa Mw cutoff spin filter to a final concentration of around 1 mg/mL. The protein
concentration was measured using a BioRad DCTM protein assay.
Pulldown experiments (western blot). Conditioned media was diluted with PBS to exactly 1 mg/mL.
200 µg of total protein was used per condition. The ABP or DMSO was added at a 1:100 dilution and
the samples were shaken at RT for 1 h. The proteins were precipitated using the MeOH/H2O/CHCl3
method. The pellet was washed twice with MeOH and dried in air for 5 min. The protein was
resuspended in 2% SDS in PBS to a concentration of 10 mg/mL. PBS was added to gradually dilute
the protein back to 1 mg/mL and the samples were centrifuged (17,000 g, 5 min). 5 µg of protein was
set aside as the “before pulldown” samples. Magnetic streptavidin beads were washed three times with
PBS. The rest of the protein was added into the beads and shaken at RT for 2 h. 5 µg of the supernatant
was set aside for analysis, while the rest was discarded. The beads were washed three times with 1%
SDS in PBS. […]
were boiled at 95 °C for 5 min. The proteins were analysed via SDS-PAGE and western blot analysis. […]
10 min, followed by 180 V for 60 min. Gels were then taken for western blot or in-gel fluorescence. […]

[11] = target: T4, KLK7 (Homo sapiens, UniProt P49862); assay: Enzyme kinetics to calculate kobs/I, KLK7; format: biochemical; settings: for KLK7 kobs/I: KLK7 34 nM, substrate 24 5 µM, 100 mM Na2PO4 0.01% Tween20 pH 8.5, room temperature, 30 min, pseudo first order kinetics, triplicates
T4 construct: gift from the group of Judith Clements (QUT)
T4 sequence (P49862 30-253): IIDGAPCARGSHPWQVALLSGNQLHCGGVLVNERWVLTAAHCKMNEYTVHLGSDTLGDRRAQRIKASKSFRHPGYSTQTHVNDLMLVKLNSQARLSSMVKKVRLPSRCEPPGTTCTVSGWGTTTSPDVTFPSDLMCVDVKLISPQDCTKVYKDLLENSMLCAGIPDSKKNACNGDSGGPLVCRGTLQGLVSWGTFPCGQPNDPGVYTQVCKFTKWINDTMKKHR
Description: as §1, §2, §3, §4

[12] = system: KLK6; assay: Enzyme kinetics to calculate kobs/I, KLK6; format: biochemical, human; settings: KLK6 1.5 nM, fluorogenic substrate 22 5 µM, 50 mM Tris 150 mM NaCl 1 mM EDTA 0.05% Tween20 pH 7.5, room temperature, read every 30 s for 30 min, ex/em 380/440 nm, pseudo first order kinetics, corrected by (1 + [S]/KM), triplicates
[13] = system: endogenous tPA and uPA; assay: Competition labelling in Capan-2 conditioned media (NeutrAvidin-HRP blot); settings: 2 h preincubation then bABP 17 1 h, concentrations as high as 40 μM
Description: (§9) Figure 3 ABP validation. […] Pulldown lanes show enriched proteins after streptavidin binding.

[14] = target: T4, KLK7; assay: Enzyme kinetics to calculate KM, KLK7; format: biochemical; settings: fluorogenic substrate, KLK7 34 nM, 2% DMSO, room temperature, 30 min, Michaelis-Menten model, triplicates
Description: as §1, §2
(§10) The manufacturer’s recommended buffers were used with uPA and tPA but not KLK8. […]
(§11) Fluorescence measurements were measured using an Envision plate reader. Fluorescence data was processed using Graphpad Prism 8. […]
as §4
(§12) 380nm/440nm. The data was analysed using Graphpad Prism 8. The initial slopes of each plot were calculated and presented in a bar chart, which represents the substrate specificity of the KLK. Error bars represent the standard deviation between the three replicates.
(§13) Enzyme kinetics to calculate KM. Purified fluorogenic substrates were measured in triplicates. […]
(§14) temperature, fluorescence was read once every 30 s for 30 min from an Envision plate reader at excitation/emission wavelengths of 380nm/440nm. The data was analysed with Graphpad Prism 8, using the Michaelis-Menten model.
(§15) Enzyme kinetics to calculate kobs/I. All ABPs and inhibitors were measured in triplicates. […]
(§16) using a pseudo first order kinetics model. The observed rate of inhibition (kobs) was calculated by plotting a one-phase association. […]

[15] = system: recombinant wild-type KLK6; assay: In-gel fluorescence labelling of recombinant wild-type KLK6; format: binding, human; settings: 1 h incubation
Description: as §9

[16] = system: KLK6[S195A]; assay: In-gel fluorescence labelling of inactive KLK6[S195A]; format: binding, human; settings: 1 h incubation
Description: as §9

[17] = target: T2, KLK8; assay: Enzyme kinetics to calculate KM, KLK8; format: biochemical; settings: fluorogenic substrate, KLK8 1 nM, 2% DMSO, room temperature, 30 min, Michaelis-Menten model, triplicates
Description: as §1, §2, §10, §11, §4, §12, §13, §14, §15, §16

[18] = Fluoroblok insert without Matrigel
[19] = Matrigel-coated Fluoroblok insert

Substance: biotin–Ahx–DPhe–Ser(Z)–Dht–ArgPP [compound 17, optimized biotinylated KLK6 ABP]
inhibition of recombinant KLK6 versus tPA and uPA [1]: selectively inhibit KLK6 over the two off-targets | selectivity for KLK6 over uPA ([2]; ratio of kobs/I): > 600 fold | KLK8 kobs/I [3]: 140 M^–1 s^–1 and 140 ± 5 M^–1 s^–1 | selectivity for KLK6 over KLK8 ([3]; ratio of kobs/I): > 70 fold | selectivity for KLK6 over tPA ([4]; ratio of kobs/I): > 600 fold | effect on proliferation (percentage confluency) [5]: no effect | labeling of intracellular proteases [6]: did not label any intracellular protease | proteases labeled/enriched over DMSO control [7]: KLK6, along with two off-targets, uPA and tPA | effect on migration [8, 18]: reduced | effect on invasion [8, 19]: reduced | effect on migration [9, 18]: no effect | effect on invasion [9, 19]: no effect | labeling of endogenous KLK6 [10]: efficiently labels endogenous active KLK6 | lowest probe concentration detecting active KLK6 ([10]; dose-dependent): 50 nM | KLK7 kobs/I [11]: 350 M⁻¹ s⁻¹ and 350 ± 90 M⁻¹ s⁻¹ | selectivity for KLK6 over KLK7 ([11]; ratio of kobs/I): > 30 fold | KLK6 kobs/I [12]: 11000 M^–1 s^–1 and 11000 ± 300 M^–1 s^–1 | KLK6 kobs/I ([12]; listed as IMP-2352): 11,000 M^–1 s^–1

KLK6 kobs/I [12]: 3000 M^–1 s^–1
Substance: Yn–DPhe–Ser(Z)–Dht–ArgPP [compound 19]
engagement of endogenous tPA and uPA [13]: does not substantively engage

Km [14]: 56 µM
Substance: Ac-KHLF-{ACC} (SMILES CC(=O)N[C@@H](CCCCN)C(=O)N[C@@H](Cc1c[nH]cn1)C(=O)N[C@@H](CC(C)C)C(=O)N[C@@H](Cc1ccccc1)C(=O)Nc1ccc2c(CC(N)=O)cc(=O)oc2c1) [compound 24, purified fluorogenic substrate for KLK7]

uPA kobs/I ([2]; uPA 2 nM, Z-GGR-AMC 60 µM, manufacturer's buffer, room temperature, 30 min, pseudo first order kinetics, triplicates): 0 M⁻¹ s⁻¹ | KLK8 kobs/I [3]: 40 M^–1 s^–1 | tPA kobs/I ([4]; tPA 2 nM, Z-GGR-AMC 60 µM, manufacturer's buffer, room temperature, 30 min, pseudo first order kinetics, triplicates): 8 M⁻¹ s⁻¹ | KLK7 kobs/I [11]: 26 M⁻¹ s⁻¹ | KLK6 kobs/I [12]: 1000 M^–1 s^–1
Substance: Cy5–DPhe–Ser(Z)–Dht–ArgPP [compound 21, Cy5-tagged KLK6 ABP]
labeling of active recombinant KLK6 [15]: dose-dependent labeling | labeling of inactive KLK6[S195A] mutant [16]: not labeled

Km [17]: 290 µM
Substance: Boc-Val-Pro-Arg-{AMC}
